In paper PMC11054271, “ABCG2 Transports the Flukicide Nitroxynil and Affects Its Biodistribution and Secretion into Milk” (Pharmaceutics, 2024):
Like-named read-outs stand apart in the source and are kept apart here.

Tests used:
murine Abcg2 = test system: T1, murine Abcg2; test: Tissue distribution in wild-type and Abcg2−/− male mice; assay type: in vivo; settings: FVB/N, mouse, sc, wild-type male mice, 10 mg/kg s.c.
T1 construct: from tissue; host or cells: whole animal: wild-type vs Abcg2-/- mice, >99% FVB/N background
Procedure: All in vivo experiments were carried out using wild-type and Abcg2^−/− mice aged between 8 and 17 weeks, all of >99% FVB/N genetic background, generated and gently supplied by A. H. Schinkel (Netherlands Cancer Institute). Mice were housed and handled complying with institutional and ARRIVE guidelines and European legislation (EU Directive 2010/63/EU for animal experiments). Additionally, experimental procedures were approved by the Animal Care and Use Committee of the University of León and the Junta de Castilla y León (ULE_011_2019).
For pharmacokinetic experiments, a single dose of nitroxynil at 10 mg/kg was administered subcutaneously to wild-type and Abcg2^−/− male mice (n = 4–5, for each time point). Distomicide® (250 mg/mL) commercial solution was dissolved in saline (sodium chloride 0.9%) and dosed at 200 μL per 30 g body weight. Blood samples were collected at different time points (0.5, 3, 4.5, 6, 24, 48 and 96 h) and heparinized blood samples were centrifugated for 15 min at 3000× g. Organs were also collected at 24 and 96 h after euthanasia. Linear trapezoidal rule was used to calculate the area under the plasma concentration–time curve (AUC) parameter.
Plasma, milk and tissue samples from each animal were individually processed and analyzed without pooling, while samples from transport assays were not processed. Tissue samples were homogenized in a mixture of 50% water/50% methanol HCl 0.5% (v/v); 1 mL solution per 0.1 g tissue. The entire amount of collected milk (74.7–295.1 mg) and 100 μL plasma and tissue homogenates were processed. To each sample, 10 μL of a nitrofurantoin solution (10 μg/mL for plasma and milk and 2 μg/mL for homogenized tissues) was added as an internal standard and 150 μL acetonitrile was used to precipitate the proteins. The mixture was vortexed horizontally for 15 min and centrifugated at 10,000× g for 5 min at 4 °C. Supernatant was transferred to a new tube and dried at 40 °C under N2 stream. Samples were reconstituted in 100 μL of mobile phase and 50 μL was injected into HPLC. Standards were subjected to the same procedures as samples.
Waters 2695 separation module and Waters 2998 UV photodiode array detector set at 270 nm were used for samples analysis. Chromatographic conditions for nitroxynil detection were based on previously described methods, with minor modifications. Chromatographic separation was achieved on a reverse-phase column (Synergy 4 μm Hydro–RP 80 Å, 250 × 4.60 mm; Phenomenex®, Torrance, CA, USA) using an isocratic binary mobile phase consisting of 25 mM potassium phosphate monobasic (KH2PO4), pH 4: acetonitrile (70:30 for culture samples and 80:20 for animal samples) at a flow rate of 1 mL/min. Autosampler and column temperature were 4 °C and 40 °C, respectively. Limit of detection (LOD) and quantification (LOQ) were calculated as previously described. For cell culture samples, LOD and LOQ were 0.003 μg/mL and 0.007 μg/mL, respectively. For in vivo samples, LOD was in the range of 0.01–0.07 μg/mL and LOQ in the range of 0.03–0.15 μg/mL.

human ABCG2 = target: T2, human ABCG2 (Homo sapiens, UniProt Q9UNQ0); test: Transepithelial transport assay in MDCK-II cells transduced with human ABCG2; assay type: in vitro ADME; settings: MDCK-II hABCG2, nitroxynil 10 µM, no Ko143, read-out: Relative efflux transport ratio (BA/AB)
T2 construct: expressed in transfected cells; host or cells: MDCK-II (canine kidney) subclone, provided by A. H. Schinkel (Netherlands Cancer Institute)
T2 sequence (Q9UNQ0 1-655): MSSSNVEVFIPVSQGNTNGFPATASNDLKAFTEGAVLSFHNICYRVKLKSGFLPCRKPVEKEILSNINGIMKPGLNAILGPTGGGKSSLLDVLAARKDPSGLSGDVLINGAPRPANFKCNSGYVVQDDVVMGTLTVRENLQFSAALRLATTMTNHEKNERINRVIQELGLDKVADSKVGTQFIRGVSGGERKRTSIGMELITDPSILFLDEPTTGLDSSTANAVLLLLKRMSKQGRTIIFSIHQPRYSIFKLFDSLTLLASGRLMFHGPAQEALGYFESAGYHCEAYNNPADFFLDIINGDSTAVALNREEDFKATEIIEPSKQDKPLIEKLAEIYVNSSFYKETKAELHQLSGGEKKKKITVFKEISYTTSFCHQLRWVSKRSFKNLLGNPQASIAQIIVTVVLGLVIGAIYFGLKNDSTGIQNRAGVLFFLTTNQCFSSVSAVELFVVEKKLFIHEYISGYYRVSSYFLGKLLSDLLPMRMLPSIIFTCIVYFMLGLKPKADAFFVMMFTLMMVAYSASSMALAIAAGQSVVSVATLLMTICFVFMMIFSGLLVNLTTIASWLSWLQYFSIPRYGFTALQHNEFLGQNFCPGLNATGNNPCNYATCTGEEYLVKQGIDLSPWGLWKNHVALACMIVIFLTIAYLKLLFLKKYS
Procedure: Parental Madin–Darby canine kidney epithelial cells (MDCK–II) and their subclones transduced with murine (mAbcg2) and human (hABCG2) variants of ABCG2 were kindly provided by Dr. A. H. Schinkel (Netherlands Cancer Institute). Transduced MDCK–II cells with the ovine (oABCG2) and bovine (bABCG2) variants were previously generated by our group. Cells were cultured as described elsewhere.
Transepithelial transport assays were carried out as previously described with minor variations, using Hanks’ balanced salt solution (Sigma-Aldrich) supplemented with HEPES (25 mM), with or without Ko143 (1 μM), and containing or not nitroxynil 10 μM. […] At the end of the experiment, confluence of the monolayer was measured with the previously described Lucifer Yellow permeability test, with minor modifications. The appearance of nitroxynil in the opposite side of the well was measured by HPLC as later described. Active transport was expressed as relative efflux transport ratio (apically directed transport percentage divided by the basolaterally directed translocation percentage) at 4 h and referred to the initial concentration. […]
Waters 2695 separation module and Waters 2998 UV photodiode array detector set at 270 nm were used for samples analysis. […] Limit of detection (LOD) and quantification (LOQ) were calculated as previously described. […]

Kp at 96 h (murine Abcg2; kidney and plasma, 96 h, read-out: Tissue/plasma ratio, kidney): 0.06 ± 0.01 | concentration at 24 h (murine Abcg2; kidney, read-out: Tissue concentration, kidney): 5900 ± 1200 ng/g | concentration at 96 h (murine Abcg2; kidney, 96 h): 900 ± 100 ng/g | concentration at 24 h (murine Abcg2; liver, read-out: Tissue concentration, liver): 900 ± 300 ng/g | concentration at 24 h (murine Abcg2; small intestine, read-out: Levels of nitroxynil in small intestine): 1100 ± 200 ng/mL | concentration at 24 h (murine Abcg2; small intestine, read-out: Tissue concentration, small intestine): 1100 ± 200 ng/g | concentration at 24 h (murine Abcg2; spleen, read-out: Accumulation in spleen): 1400 ± 300 ng/mL | concentration at 24 h (murine Abcg2; spleen, read-out: Tissue concentration, spleen): 1400 ± 300 ng/g | concentration at 24 h (murine Abcg2; testis, read-out: Concentration in testis): 2600 ± 200 ng/mL | concentration at 24 h (murine Abcg2; testis, read-out: Tissue concentration, testis): 2600 ± 200 ng/g | efflux ratio at 4 h, 10 µM (human ABCG2): 8.76 ± 0.5
Compound: N#Cc1cc(I)c(O)c([N+](=O)[O-])c1 [nitroxynil]
